Data taken from PMC7366380, “Discovery of a Potent and Selective Covalent Inhibitor and Activity-Based Probe for the Deubiquitylating Enzyme UCHL1, with Antifibrotic Activity” (Journal of the American Chemical Society, 2020).
Several values for one entry are separate records, joined by “and”; a condition that tells them apart may be missing. Equal entries are not always repeated.

Key:
Assay in all cases: In-cell proteome-wide competitive ABPP, HEK293: other DUBs and proteins
[1] = target: T1, DUBs and other proteins in HEK293 cells (Homo sapiens, UniProt Q86UV5); settings: for Log2 reporter intensity values: USP48: competition with ABP 2, DMSO substract (FC), replicates A-B; for Log2 reporter intensity values: USP48, DMSO subtracted
T1 sequence (Q86UV5 1-1035): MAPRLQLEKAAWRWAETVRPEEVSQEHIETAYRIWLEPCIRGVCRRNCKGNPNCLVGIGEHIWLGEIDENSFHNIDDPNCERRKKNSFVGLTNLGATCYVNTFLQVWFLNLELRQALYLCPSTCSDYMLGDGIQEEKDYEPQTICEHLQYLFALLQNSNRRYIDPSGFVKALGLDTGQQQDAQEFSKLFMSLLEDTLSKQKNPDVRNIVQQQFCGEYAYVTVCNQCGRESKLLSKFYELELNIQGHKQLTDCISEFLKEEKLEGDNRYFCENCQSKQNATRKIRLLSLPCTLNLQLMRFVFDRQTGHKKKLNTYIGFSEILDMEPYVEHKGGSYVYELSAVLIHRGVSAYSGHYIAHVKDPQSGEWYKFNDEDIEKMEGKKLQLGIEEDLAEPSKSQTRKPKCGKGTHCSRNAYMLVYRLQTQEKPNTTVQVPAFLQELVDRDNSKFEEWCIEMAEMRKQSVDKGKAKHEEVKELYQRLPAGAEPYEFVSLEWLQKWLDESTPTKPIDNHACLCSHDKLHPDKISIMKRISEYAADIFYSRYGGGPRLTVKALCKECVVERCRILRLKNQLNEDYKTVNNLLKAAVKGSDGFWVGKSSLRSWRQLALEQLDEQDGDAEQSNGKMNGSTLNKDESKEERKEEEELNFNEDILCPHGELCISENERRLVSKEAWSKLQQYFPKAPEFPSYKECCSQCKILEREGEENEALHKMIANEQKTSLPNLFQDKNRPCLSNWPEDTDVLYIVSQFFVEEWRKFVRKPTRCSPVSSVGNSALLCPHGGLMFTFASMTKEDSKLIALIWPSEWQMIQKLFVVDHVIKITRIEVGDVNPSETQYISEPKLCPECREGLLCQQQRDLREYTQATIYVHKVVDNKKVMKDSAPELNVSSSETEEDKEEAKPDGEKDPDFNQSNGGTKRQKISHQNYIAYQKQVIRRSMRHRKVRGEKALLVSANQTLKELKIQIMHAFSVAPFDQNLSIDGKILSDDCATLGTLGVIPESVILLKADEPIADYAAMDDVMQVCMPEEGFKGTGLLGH

[2] = target: DUBs and other proteins in HEK293 cells (Homo sapiens, UniProt P54578); settings: replicates A-C; for Log2 reporter intensity values: USP14: competition with ABP 2, DMSO substract (FC); for Log2 reporter intensity values: USP14, DMSO subtracted
Sequence of DUBs and other proteins in HEK293 cells (Homo sapiens, UniProt P54578) (P54578 whole entry): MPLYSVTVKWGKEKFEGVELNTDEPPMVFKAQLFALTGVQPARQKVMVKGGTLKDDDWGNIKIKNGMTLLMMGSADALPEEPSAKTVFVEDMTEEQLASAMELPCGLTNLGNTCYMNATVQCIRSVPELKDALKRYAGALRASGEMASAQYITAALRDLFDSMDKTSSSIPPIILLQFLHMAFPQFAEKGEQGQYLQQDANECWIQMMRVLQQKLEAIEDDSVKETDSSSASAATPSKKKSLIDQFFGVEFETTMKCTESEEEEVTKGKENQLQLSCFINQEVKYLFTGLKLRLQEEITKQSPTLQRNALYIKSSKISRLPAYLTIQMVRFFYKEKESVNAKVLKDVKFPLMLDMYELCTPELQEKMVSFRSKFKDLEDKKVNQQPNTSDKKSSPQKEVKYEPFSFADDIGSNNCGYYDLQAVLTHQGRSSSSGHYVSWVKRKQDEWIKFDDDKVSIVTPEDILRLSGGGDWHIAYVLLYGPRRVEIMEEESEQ

[3] = target: DUBs and other proteins in HEK293 cells (Homo sapiens, UniProt Q96FW1); settings: replicates A-C; for Log2 reporter intensity values: OTUB1: competition with ABP 2, DMSO substract (FC); for Log2 reporter intensity values: OTUB1, DMSO subtracted
Sequence of DUBs and other proteins in HEK293 cells (Homo sapiens, UniProt Q96FW1) (Q96FW1 whole entry): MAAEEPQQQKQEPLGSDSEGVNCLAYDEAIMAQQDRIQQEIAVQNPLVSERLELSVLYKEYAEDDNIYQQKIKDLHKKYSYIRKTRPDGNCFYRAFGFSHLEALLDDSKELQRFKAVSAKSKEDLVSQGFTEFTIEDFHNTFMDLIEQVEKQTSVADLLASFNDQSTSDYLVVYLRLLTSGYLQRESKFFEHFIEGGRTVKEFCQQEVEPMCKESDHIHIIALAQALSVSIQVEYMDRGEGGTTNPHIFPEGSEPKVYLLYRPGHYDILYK

[4] = target: DUBs and other proteins in HEK293 cells (Homo sapiens, UniProt Q9UPU5); settings: replicates A-C; for Log2 reporter intensity values: USP24: competition with ABP 2, DMSO substract (FC); for Log2 reporter intensity values: USP24, DMSO subtracted
[5] = target: DUBs and other proteins in HEK293 cells (Homo sapiens, UniProt O00487); settings: replicates A-C; for Log2 reporter intensity values: PSMD14: competition with ABP 2, DMSO substract (FC); for Log2 reporter intensity values: PSMD14, DMSO subtracted
Sequence of DUBs and other proteins in HEK293 cells (Homo sapiens, UniProt O00487) (O00487 whole entry): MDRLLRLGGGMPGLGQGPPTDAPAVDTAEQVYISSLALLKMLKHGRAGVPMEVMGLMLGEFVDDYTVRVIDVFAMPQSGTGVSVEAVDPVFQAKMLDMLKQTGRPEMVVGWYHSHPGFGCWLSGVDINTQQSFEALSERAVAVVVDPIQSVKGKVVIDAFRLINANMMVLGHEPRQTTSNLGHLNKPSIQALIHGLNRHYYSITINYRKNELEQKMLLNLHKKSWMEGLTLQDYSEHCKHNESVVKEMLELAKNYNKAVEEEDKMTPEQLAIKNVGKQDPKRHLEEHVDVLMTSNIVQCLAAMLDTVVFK

[6] = target: DUBs and other proteins in HEK293 cells (Homo sapiens, UniProt Q93008); settings: replicates A-C; for Log2 reporter intensity values: USP9X;USP9Y: competition with ABP 2, DMSO substract (FC); for Log2 reporter intensity values: USP9X;USP9Y, DMSO subtracted
Sequence of DUBs and other proteins in HEK293 cells (Homo sapiens, UniProt Q93008) (Q93008 whole entry): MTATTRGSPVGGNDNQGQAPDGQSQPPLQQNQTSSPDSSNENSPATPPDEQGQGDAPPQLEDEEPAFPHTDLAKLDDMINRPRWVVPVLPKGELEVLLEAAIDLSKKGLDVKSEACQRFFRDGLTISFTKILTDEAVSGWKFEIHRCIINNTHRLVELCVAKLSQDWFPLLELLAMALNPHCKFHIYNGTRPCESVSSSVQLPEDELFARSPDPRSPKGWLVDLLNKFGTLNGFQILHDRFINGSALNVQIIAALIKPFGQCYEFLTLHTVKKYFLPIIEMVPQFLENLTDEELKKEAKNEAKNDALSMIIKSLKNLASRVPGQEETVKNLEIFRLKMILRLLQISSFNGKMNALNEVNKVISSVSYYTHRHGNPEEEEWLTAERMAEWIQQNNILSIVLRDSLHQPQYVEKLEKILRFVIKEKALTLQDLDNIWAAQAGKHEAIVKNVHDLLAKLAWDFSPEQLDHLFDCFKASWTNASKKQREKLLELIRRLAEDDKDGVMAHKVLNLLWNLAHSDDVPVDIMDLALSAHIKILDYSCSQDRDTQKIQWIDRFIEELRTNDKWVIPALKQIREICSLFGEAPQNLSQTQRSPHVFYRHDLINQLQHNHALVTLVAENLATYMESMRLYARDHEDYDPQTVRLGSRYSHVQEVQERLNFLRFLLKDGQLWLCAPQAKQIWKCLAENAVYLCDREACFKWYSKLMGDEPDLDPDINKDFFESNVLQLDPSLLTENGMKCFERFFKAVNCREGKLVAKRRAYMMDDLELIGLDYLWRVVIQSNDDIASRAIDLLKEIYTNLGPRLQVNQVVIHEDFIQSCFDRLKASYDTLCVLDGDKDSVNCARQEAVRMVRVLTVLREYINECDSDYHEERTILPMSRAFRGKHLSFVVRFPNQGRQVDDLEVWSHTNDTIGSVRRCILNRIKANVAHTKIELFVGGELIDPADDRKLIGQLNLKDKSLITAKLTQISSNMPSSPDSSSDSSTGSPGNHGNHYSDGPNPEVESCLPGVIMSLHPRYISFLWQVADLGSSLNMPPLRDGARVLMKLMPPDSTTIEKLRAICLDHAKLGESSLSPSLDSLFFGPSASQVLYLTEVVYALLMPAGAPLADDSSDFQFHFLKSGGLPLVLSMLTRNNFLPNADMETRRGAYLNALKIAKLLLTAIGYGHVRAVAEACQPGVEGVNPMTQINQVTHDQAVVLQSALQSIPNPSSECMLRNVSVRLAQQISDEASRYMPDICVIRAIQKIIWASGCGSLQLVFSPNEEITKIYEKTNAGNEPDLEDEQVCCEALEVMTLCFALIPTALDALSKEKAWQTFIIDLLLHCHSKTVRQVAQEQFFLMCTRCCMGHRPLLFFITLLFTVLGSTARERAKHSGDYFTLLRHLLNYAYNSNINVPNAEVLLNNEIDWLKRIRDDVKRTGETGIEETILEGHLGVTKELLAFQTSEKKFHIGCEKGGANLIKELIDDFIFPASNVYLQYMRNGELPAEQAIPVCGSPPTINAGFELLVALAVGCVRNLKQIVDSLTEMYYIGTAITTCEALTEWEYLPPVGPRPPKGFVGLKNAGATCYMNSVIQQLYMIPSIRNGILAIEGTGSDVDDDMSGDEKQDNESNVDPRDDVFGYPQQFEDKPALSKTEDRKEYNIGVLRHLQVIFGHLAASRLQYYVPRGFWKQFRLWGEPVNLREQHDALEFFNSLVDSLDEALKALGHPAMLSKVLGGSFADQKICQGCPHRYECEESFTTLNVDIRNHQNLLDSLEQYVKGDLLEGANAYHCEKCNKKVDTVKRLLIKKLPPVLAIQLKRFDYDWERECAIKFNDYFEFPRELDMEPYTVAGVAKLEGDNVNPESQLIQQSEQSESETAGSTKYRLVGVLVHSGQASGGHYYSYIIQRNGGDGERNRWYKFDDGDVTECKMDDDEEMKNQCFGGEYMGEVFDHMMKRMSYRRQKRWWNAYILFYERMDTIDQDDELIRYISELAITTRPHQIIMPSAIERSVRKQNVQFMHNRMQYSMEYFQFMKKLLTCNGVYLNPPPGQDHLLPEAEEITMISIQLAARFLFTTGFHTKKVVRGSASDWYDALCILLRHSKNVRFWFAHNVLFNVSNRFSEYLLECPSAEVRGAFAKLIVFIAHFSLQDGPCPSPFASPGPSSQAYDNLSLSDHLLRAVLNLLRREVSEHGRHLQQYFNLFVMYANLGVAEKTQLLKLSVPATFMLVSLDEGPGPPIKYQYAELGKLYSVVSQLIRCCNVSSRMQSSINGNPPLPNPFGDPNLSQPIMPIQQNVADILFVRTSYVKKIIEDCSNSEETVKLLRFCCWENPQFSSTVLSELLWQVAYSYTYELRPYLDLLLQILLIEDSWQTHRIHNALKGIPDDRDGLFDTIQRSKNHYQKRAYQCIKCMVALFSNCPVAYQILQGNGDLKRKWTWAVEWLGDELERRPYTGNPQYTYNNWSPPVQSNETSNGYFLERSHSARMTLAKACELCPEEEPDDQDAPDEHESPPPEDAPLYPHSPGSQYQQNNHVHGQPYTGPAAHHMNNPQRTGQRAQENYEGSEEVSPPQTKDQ

[7] = target: T2, DUBs and other proteins in HEK293 cells (Homo sapiens, UniProt P51665); settings: replicates A-C; for Log2 reporter intensity values: PSMD7: competition with ABP 2, DMSO substract (FC); for Log2 reporter intensity values: PSMD7, DMSO subtracted
T2 sequence (P51665 1-324): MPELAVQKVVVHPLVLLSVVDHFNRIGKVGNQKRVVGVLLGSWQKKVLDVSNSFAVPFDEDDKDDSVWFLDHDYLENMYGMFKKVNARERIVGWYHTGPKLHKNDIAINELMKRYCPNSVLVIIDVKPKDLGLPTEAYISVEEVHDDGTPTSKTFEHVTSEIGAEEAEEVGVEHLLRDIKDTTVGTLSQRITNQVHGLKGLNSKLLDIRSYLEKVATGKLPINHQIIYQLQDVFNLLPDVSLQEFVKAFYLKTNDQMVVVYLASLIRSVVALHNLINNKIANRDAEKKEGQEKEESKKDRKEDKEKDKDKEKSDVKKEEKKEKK

Structure (SMILES): CC(=O)O/N=C1\C(=O)N(Cc2cc(Cl)ccc2Cl)c2ccc(Cl)cc21 [LDN]
- Log2 reporter intensity values: USP48 ([1]; LDN at 5 μM): 1.048 and 1.119
- Log2 reporter intensity values: USP48 ([1]; LDN at 25 μM): 1.118 and 1.08
- Log2 reporter intensity values ([1]; LDN at 5 μM, replicates A-C): 0.0673 and 0.1618
- Log2 reporter intensity values ([1]; LDN at 25 μM, replicates A-C): 0.1604 and 0.1117
- Log2 reporter intensity values ([1]; LDN_5 μM, replicates A-B (C NaN)): 0.04647 and 0.1174
- Log2 reporter intensity values ([1]; LDN_25 μM, replicates A-B (C NaN)): 0.1163 and 0.0792
- Log2 reporter intensity values: USP14 ([2]; LDN at 5 μM): 1.178 and 1.18 and 1.165
- Log2 reporter intensity values: USP14 ([2]; LDN at 25 μM): 1.092 and 1.124 and 1.125
- Log2 reporter intensity values ([2]; LDN at 5 μM): 0.2361 and 0.2386 and 0.2201
- Log2 reporter intensity values ([2]; LDN at 25 μM): 0.1275 and 0.1688 and 0.1694
- Log2 reporter intensity values ([2]; LDN_5 μM): 0.1776 and 0.1796 and 0.1646
- Log2 reporter intensity values ([2]; LDN_25 μM): 0.0922 and 0.1239 and 0.1243
- Log2 reporter intensity values: OTUB1 ([3]; LDN at 5 μM): 1.034 and 1.042 and 1.019
- Log2 reporter intensity values: OTUB1 ([3]; LDN at 25 μM): 1.066 and 0.9796 and 1.019
- Log2 reporter intensity values ([3]; LDN at 5 μM): 0.04805 and 0.05934 and 0.02777
- Log2 reporter intensity values ([3]; LDN at 25 μM): 0.09269 and -0.02973 and 0.02677
- Log2 reporter intensity values ([3]; LDN_5 μM): 0.03375 and 0.04187 and 0.01932
- Log2 reporter intensity values ([3]; LDN_25 μM): 0.06623 and -0.02052 and 0.01861
- Log2 reporter intensity values: USP24 ([4]; LDN at 5 μM): 0.8375 and 1.105 and 1.062
- Log2 reporter intensity values: USP24 ([4]; LDN at 25 μM): 1.15 and 1.015 and 1.054
- Log2 reporter intensity values ([4]; LDN at 5 μM): -0.2559 and 0.1441 and 0.08741
- Log2 reporter intensity values ([4]; LDN at 25 μM): 0.2018 and 0.02211 and 0.07566
- Log2 reporter intensity values ([4]; LDN_5 μM): -0.1659 and 0.1016 and 0.0591
- Log2 reporter intensity values ([4]; LDN_25 μM): 0.1468 and 0.01208 and 0.05048
- Log2 reporter intensity values: PSMD14 ([5]; LDN at 5 μM): 1.1 and 1.114 and 0.9966
- Log2 reporter intensity values: PSMD14 ([5]; LDN at 25 μM): 0.9804 and 1.072 and 1.068
- Log2 reporter intensity values ([5]; LDN at 5 μM): 0.1369 and 0.1555 and -0.004904
- Log2 reporter intensity values ([5]; LDN at 25 μM): -0.02853 and 0.1005 and 0.09452
- Log2 reporter intensity values ([5]; LDN_5 μM): 0.09685 and 0.1112 and -0.006053
- Log2 reporter intensity values ([5]; LDN_25 μM): -0.02224 and 0.06945 and 0.06505
- Log2 reporter intensity values: USP9X;USP9Y ([6]; LDN at 5 μM): 0.9588 and 0.9416 and 0.9642
- Log2 reporter intensity values: USP9X;USP9Y ([6]; LDN at 25 μM): 0.918 and 0.963 and 0.9662
- Log2 reporter intensity values ([6]; LDN at 5 μM): -0.06063 and -0.08675 and -0.05259
- Log2 reporter intensity values ([6]; LDN at 25 μM): -0.1235 and -0.05434 and -0.04956
- Log2 reporter intensity values ([6]; LDN_5 μM): -0.04118 and -0.05839 and -0.03582
- Log2 reporter intensity values ([6]; LDN_25 μM): -0.08207 and -0.03699 and -0.0338
- Log2 reporter intensity values: PSMD7 ([7]; LDN at 5 μM): 1.218 and 1.097 and 1.111
- Log2 reporter intensity values: PSMD7 ([7]; LDN at 25 μM): 1.26 and 1.205 and 1.158
- Log2 reporter intensity values ([7]; LDN at 5 μM): 0.2849 and 0.1342 and 0.1516
- Log2 reporter intensity values ([7]; LDN at 25 μM): 0.3338 and 0.2689 and 0.2118
- Log2 reporter intensity values ([7]; LDN_5 μM): 0.2157 and 0.09493 and 0.1083
- Log2 reporter intensity values ([7]; LDN_25 μM): 0.2577 and 0.2023 and 0.1556
